Here are results for 1 compound from patent US20230321101A1, “METHODS AND USES OF HALOFUGINONE” (The Regents of the University of California, priority 2020, published 2023).

For one data set, the system named is Vero E6 cells. In words: Cell number of Vero E6 cells treated for 24 h. Type of data set: cell-based, African green monkey. The note with it: Vero E6, 24 h. Here is the method:
FIG. 32A and FIG. 32B. […] A-B, Measurement of authentic SARS-CoV-2 infection and cell number in Vero E6 cells treated with (A) halofuginone (HF) or (B) the 2R,3S-(+) enantiomer for 24 h. Data shown as mean±S.D.

A further data set relates to authentic SARS-CoV-2. Put plainly: microbe, parasite or virus in culture. Type of data set: cell-based. As to conditions: Vero E6.
For data set [1], the system named is recombinant SARS-CoV-2 spike RBD protein binding to Hep3B cells.
For data set [2], the system named is cell surface heparan sulfate of Hep3B cells. In words: Heparan sulfate presentation by anti-HS mAb 10E4 staining of Hep3B cells. Type of data set: cell-based, human.

What is called pIC50 is the negative decadic logarithm of the IC50, by convention in mol/L.

The structures appear in SMILES notation. pIC50: −log10 of the molar value.

In the case of `O=C(C[C@H]1NCCC[C@@H]1O)Cn1cnc2cc(Br)c(Cl)cc2c1=O` [2R,3S-(+) halofuginone], the “cell proliferation (cell number)” value with Vero E6 cells was “inhibit SARS-CoV-2 infection and cell proliferation”. Besides, the “effect on authentic SARS-CoV-2 infection” value with authentic SARS-CoV-2 is on record as “inhibit SARS-CoV-2 infection”. Besides, the negative-log IC50 (pIC50) in the data set with authentic SARS-CoV-2 (read-out: IC50 of SARS-CoV-2 infectivity, enantiomer comparison) is 7.92. For the same compound, in data set [1], the “effect on spike (RBD) protein binding” value was “inhibited HS production and authentic SARS-CoV-2 spike RBD protein binding”. For the same compound, the “effect on heparan sulfate presentation (10E4 binding)” value in data set [2] is recorded as “inhibited HS production”.
